Test results as given in patent US5449752A, “Polypeptides with affinity to lipopolysaccharides and their uses” (Seikagaku Kogyo K.K., priority 1991, dated 1995).
≈ marks a conversion by molar mass, not a printed value. Positions of bridges follow the written chain, without caps; N, C: chain ends. Residues, ends and D or L forms follow the SMILES beside them. No end group written: not given here.

Experiments:
MT-4 cells = test: Cytotoxicity on virus-noninfected MT-4 cells (MTT method); assay type: cell-based; conditions: 37° C., 5 days
Protocol: (§1) HIV-infected MT-4 cells (2.5×10^4 cells/well, multiplicity of infection (MOI): 0.001) immediately after infection were added together with the test substance with various changes of the concentration to a 96-well microtitre plate. After incubation at 37° C. for 5 days in a CO2 incubator, the number of survivor cells was measured by the MTT method [Pauwels et al.; J. Virol. Methods, 20, 309-321 (1988)]. The antiviral activity is expressed as a concentration at which cell death due to HIV infection is 50% inhibited (EC50 : 50% effective concentration). On the other hand, in order to know the cytotoxicity of the test substance on the MT-4 cells, virus-noninfected cells are incubated, likewise as above, together with the test compound with various changes of the concentration. The cytotoxicity is expressed as 50% cytotoxic concentration […] due to the test substance. Further, the rough ratio of CC50 to EC50 (CC50 /EC50) is expressed as an effective ratio (SI=selectivity index).

HIV = test: Antiviral activity against HIV in HIV-infected MT-4 cells (MTT method); assay type: cell-based, human immunodeficiency virus; conditions: for EC50 (concentration at which cell death due to HIV infection is 50% inhibited): HIV-infected MT-4 cells, MOI 0.001, 37° C., 5 days, MTT method; for selectivity in killing HIV infected cells (in words): MT-4 cells, Table III; for selectivity index higher than for any of the known high endotoxin affinity compounds: compared with Tachyplesins and Polyphemusins of Table III; for SI (CC50 /EC50): rough ratio of CC50 to EC50, MT-4 cells
Protocol: The antiviral activity-against HIV of the polypeptide (1) synthesized in Example 1 as well as polypeptides (2), (3), (4), (7), (12), (13), (14), (20), (21) and (26) was tested and evaluated according to the following method.
as §1

| Compound | CC50 (50% cytotoxic concentration) (MT-4 cells) | EC50 (concentration at which cell death due to HIV infection is 50% inhibited) (HIV) | selectivity in killing HIV infected cells (in words) (HIV) | selectivity index higher than for any of the known high endotoxin affinity compounds (HIV) | SI (CC50 /EC50) (HIV) |
| --- | --- | --- | --- | --- | --- |
| N=C(N)NCCC[C@H](NC(=O)[C@@H]1CSSC[C@H](NC(=O)[C@H](Cc2c[nH]c3ccccc23)NC(=O)[C@H](CCCNC(=N)N)NC(=O)[C@@H](N)CCCNC(=N)N)C(=O)N[C@@H](Cc2ccc(O)cc2)C(=O)N[C@@H](CCCNC(=N)N)C(=O)N[C@@H](CCCCN)C(=O)N[C@H]2CSSC[C@H](NC(=O)[C@H](Cc3ccccc3)NC(=O)CNC(=O)[C@H](CCCCN)NC(=O)[C@H](Cc3ccc(O)cc3)NC2=O)C(=O)N[C@@H](Cc2ccc(O)cc2)C(=O)N[C@@H](CCCNC(=N)N)C(=O)N[C@@H](CCCCN)C(=O)N1)C(N)=O [polypeptide (13), ArgArgTrpCysTyrArgLysCysTyrLysGlyPheCysTyrArgLysCysArgNH2] (H-RRWCYRKCYKGFCYRKCR-NH2; disulfide 4-17, 8-13; N-terminus assumed) | 52 µg/mL (≈ 21 µM) | 0.009 µg/mL (≈ 0.00364 µM) | particularly selective | at least 7 fold | – |
| N=C(N)NCCC[C@H](NC(=O)[C@@H]1CSSC[C@H](NC(=O)[C@H](Cc2c[nH]c3ccccc23)NC(=O)[C@H](CCCNC(=N)N)NC(=O)[C@@H](N)CCCNC(=N)N)C(=O)N[C@@H](Cc2ccc(O)cc2)C(=O)N[C@@H](CCCCN)C(=O)N[C@@H](CCCNC(=N)N)C(=O)N[C@H]2CSSC[C@H](NC(=O)[C@H](Cc3ccc(O)cc3)NC(=O)CNC(=O)[C@H](CCCCN)NC(=O)[C@H](Cc3ccc(O)cc3)NC2=O)C(=O)N[C@@H](Cc2ccc(O)cc2)C(=O)N[C@@H](CCCCN)C(=O)N[C@@H](CCCNC(=N)N)C(=O)N1)C(N)=O [polypeptide (12), ArgArgTrpCysTyrLysArgCysTyrLysGlyTyrCysTyrLysArgCysArgNH2] (H-RRWCYKRCYKGYCYKRCR-NH2; disulfide 4-17, 8-13; N-terminus assumed) | 245 µg/mL (≈ 98.5 µM) | 0.49 µg/mL (≈ 0.197 µM) | particularly selective | at least 7 fold | – |
| Cc1cn([C@H]2C[C@H](N=[N+]=[N-])[C@@H](CO)O2)c(=O)[nH]c1=O [AZT, reference compound] | 6.8 µg/mL (≈ 25.4 µM) | 4.8 µg/mL (≈ 18 µM) | – | – | – |
| N=C(N)NCCC[C@H](NC(=O)[C@@H]1CSSC[C@H](NC(=O)[C@H](Cc2c[nH]c3ccccc23)NC(=O)[C@@H](N)CCCNC(=N)N)C(=O)N[C@@H](Cc2ccc(O)cc2)C(=O)N[C@@H](CCCNC(=N)N)C(=O)N[C@@H](CCCCN)C(=O)N[C@H]2CSSC[C@H](NC(=O)[C@H](Cc3ccccc3)NC(=O)CNC(=O)[C@H](CCCCN)NC(=O)[C@H](Cc3ccc(O)cc3)NC2=O)C(=O)N[C@@H](Cc2ccc(O)cc2)C(=O)N[C@@H](CCCNC(=N)N)C(=O)N[C@@H](CCCCN)C(=O)N1)C(N)=O [polypeptide (3), ArgTrpCysTyrArgLysCysTyrLysGlyPheCysTyrArgLysCysArgNH2] (H-RWCYRKCYKGFCYRKCR-NH2; disulfide 3-16, 7-12; N-terminus assumed) | 50 µg/mL (≈ 21.6 µM) | 0.07 µg/mL (≈ 0.0302 µM) | particularly selective | at least 7 fold | – |
| N=C(N)NCCC[C@H](NC(=O)[C@@H]1CSSC[C@H](NC(=O)[C@H](Cc2c[nH]c3ccccc23)NC(=O)[C@H](CCCNC(=N)N)NC(=O)[C@@H](N)CCCNC(=N)N)C(=O)N[C@@H](Cc2ccc(O)cc2)C(=O)N[C@@H](CCCNC(=N)N)C(=O)N[C@@H](CCCCN)C(=O)N[C@H]2CSSC[C@H](NC(=O)[C@H](Cc3ccc(O)cc3)NC(=O)CNC(=O)[C@H](CCCCN)NC(=O)[C@H](Cc3ccc(O)cc3)NC2=O)C(=O)N[C@@H](Cc2ccc(O)cc2)C(=O)N[C@@H](CCCNC(=N)N)C(=O)N[C@@H](CCCCN)C(=O)N1)C(N)=O [polypeptide (1)] (H-RRWCYRKCYKGYCYRKCR-NH2; disulfide 4-17, 8-13) | 54 µg/mL (≈ 21.7 µM) | – | – | – | 10800 |
| CC(C)[C@@H]1NC(=O)[C@H](CCCNC(=N)N)NC(=O)[C@H](Cc2ccccc2)NC(=O)[C@@H](NC(=O)[C@H](Cc2c[nH]c3ccccc23)NC(=O)[C@H](CCCNC(=N)N)NC(=O)[C@@H](N)CCCNC(=N)N)CSSC[C@@H](C(=O)N[C@@H](CCCNC(=N)N)C(N)=O)NC(=O)[C@H](CCCCN)NC(=O)[C@H](CCCNC(=N)N)NC(=O)[C@H](Cc2ccc(O)cc2)NC(=O)[C@@H]2CSSC[C@H](NC1=O)C(=O)N[C@@H](Cc1ccc(O)cc1)C(=O)N[C@@H](CCCCN)C(=O)NCC(=O)N[C@@H](Cc1ccccc1)C(=O)N2 [Polyphemusin II, ArgArgTrpCysPheArgValCysTyrLysGlyPheCysTyrArgLysCysArg NH2, reference compound] (H-RRWCFRVCYKGFCYRKCR-NH2; disulfide 4-17, 8-13) | 33 µg/mL (≈ 13.6 µM) | 1.9 µg/mL (≈ 0.783 µM) | – | – | 17 |
| N=C(N)NCCC[C@H](NC(=O)[C@@H]1CSSC[C@H](NC(=O)[C@H](Cc2c[nH]c3ccccc23)NC(=O)[C@@H](N)CCCNC(=N)N)C(=O)N[C@@H](Cc2ccc(O)cc2)C(=O)N[C@@H](CCCNC(=N)N)C(=O)N[C@@H](CCCCN)C(=O)N[C@H]2CSSC[C@H](NC(=O)[C@H](Cc3ccccc3)NC(=O)CNC(=O)[C@H](CCCCN)NC(=O)[C@H](Cc3ccccc3)NC2=O)C(=O)N[C@@H](Cc2ccc(O)cc2)C(=O)N[C@@H](CCCNC(=N)N)C(=O)N[C@@H](CCCCN)C(=O)N1)C(N)=O [polypeptide (21), ArgTrpCysTyrArgLysCysPheLysGlyPheCysTyrArgLysCysArgNH2] (H-RWCYRKCFKGFCYRKCR-NH2; disulfide 3-16, 7-12; N-terminus assumed) | 53 µg/mL (≈ 23.1 µM) | 0.08 µg/mL (≈ 0.0348 µM) | – | – | – |
| N=C(N)NCCC[C@H](NC(=O)[C@H](CCCNC(=N)N)NC(=O)[C@@H]1CSSC[C@H](NC(=O)[C@H](Cc2c[nH]c3ccccc23)NC(=O)[C@H](CCCNC(=N)N)NC(=O)[C@@H](N)CCCNC(=N)N)C(=O)N[C@@H](Cc2ccc(O)cc2)C(=O)N[C@@H](CCCNC(=N)N)C(=O)N[C@@H](CCCCN)C(=O)N[C@H]2CSSC[C@H](NC(=O)[C@H](Cc3ccc(O)cc3)NC(=O)CNC(=O)[C@H](CCCCN)NC(=O)[C@H](Cc3ccc(O)cc3)NC2=O)C(=O)N[C@@H](Cc2ccc(O)cc2)C(=O)N[C@@H](CCCNC(=N)N)C(=O)N[C@@H](CCCCN)C(=O)N1)C(N)=O [polypeptide (2), ArgArgTrpCysTyrArgLysCysTyrLysGlyTyrCysTyrArgLysCysArgArgNH2] (H-RRWCYRKCYKGYCYRKCRR-NH2; disulfide 4-17, 8-13; N-terminus assumed) | 200 µg/mL (≈ 75.7 µM) | 1.26 µg/mL (≈ 0.477 µM) | – | – | – |
| ArgArgTyrCysTyrArgLysCysTyrLysGlyTyrCysTrpArgLysCysArgNH2 (RRYCYRKCYKGYCWRKCR-NH2; cysteine pairing not given here) [polypeptide (7)] | 100 µg/mL | 0.36 µg/mL | – | – | 278 |
